Test results as given in ChEMBL document CHEMBL1201862, “PubChem BioAssay data set” (2004).
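These data come from cells grown in 96-well plates and exposed to compound for 48 hours at five concentrations. GI50: concentration for 50% inhibition of growth.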 The source made the active and inactive calls. Cut-off read from the data, not from the text of the source: active = GI50 up to about 1.1 µM and inactive = higher.

Key:
Experiment in all cases: NCI tumour cell line growth inhibition, 48 h
SNB-75 = test system: SNB-75
HCC 2998 = test system: HCC 2998
HOP-62 = test system: HOP-62
HOP-92 = test system: HOP-92
NCI-H226 = test system: NCI-H226
OVCAR-3 = test system: OVCAR-3
ACHN = test system: ACHN
MOLT-4 = test system: MOLT-4
SF-268 = test system: SF-268
HL-60 = test system: HL-60
RXF 393 = test system: RXF 393
SK-OV-3 = test system: SK-OV-3
SR = test system: SR
SF-295 = test system: SF-295
SN12C = test system: SN12C
CAKI-1 = test system: CAKI-1
OVCAR-4 = test system: OVCAR-4
SW-620 = test system: SW-620
PC-3 = test system: PC-3
TK-10 = test system: TK-10

Measured: GI50

CC12CC3CC/C(=N\O)C(C1)C3(N1CCOCC1)C/C2=N/O (stereo not drawn)
inactive: SNB-75 25.1 µM | HCC 2998 > 100 µM | HOP-62 > 100 µM | HOP-92 > 100 µM | NCI-H226 > 100 µM | OVCAR-3 > 100 µM | ACHN > 100 µM | MOLT-4 > 100 µM | SF-268 > 100 µM | HL-60 49.8 µM | RXF 393 > 100 µM | SK-OV-3 > 100 µM | SR > 100 µM | SF-295 > 100 µM | SN12C > 100 µM | CAKI-1 > 100 µM | OVCAR-4 > 100 µM | SW-620 > 100 µM | PC-3 > 100 µM

O=S(=O)(c1cc(Cl)ccc1Cl)n1ccnc1
inactive: SNB-75 41.8 µM | HCC 2998 15.8 µM | HOP-62 48 µM | HOP-92 39.9 µM | NCI-H226 14.5 µM | OVCAR-3 46.9 µM | ACHN 76.7 µM | MOLT-4 32.6 µM | SF-268 45.1 µM | HL-60 28.4 µM | RXF 393 28 µM | TK-10 24.1 µM | SK-OV-3 > 100 µM | SR 25.4 µM | SF-295 > 100 µM | SN12C 30.2 µM | CAKI-1 39.7 µM | OVCAR-4 43 µM | SW-620 77.4 µM | PC-3 47.8 µM

c1ccc(C(OCCN2CC3CCC(C2)N3)c2ccccc2)cc1
inactive: SNB-75 50.1 µM | HCC 2998 17.8 µM | HOP-62 > 100 µM | HOP-92 18.3 µM | NCI-H226 45 µM | OVCAR-3 45 µM | ACHN > 100 µM | MOLT-4 74.8 µM | SF-268 > 100 µM | HL-60 74.1 µM | RXF 393 43.8 µM | TK-10 > 100 µM | SK-OV-3 > 100 µM | SR 31.6 µM | SF-295 83 µM | SN12C > 100 µM | CAKI-1 > 100 µM | OVCAR-4 > 100 µM | SW-620 81.3 µM | PC-3 > 100 µM

CN(/N=C/c1ccccn1)C1=NCCCCN1
inactive: SNB-75 > 100 µM | HCC 2998 > 100 µM | HOP-62 > 100 µM | HOP-92 > 100 µM | NCI-H226 > 100 µM | OVCAR-3 > 100 µM | ACHN > 100 µM | MOLT-4 > 100 µM | SF-268 > 100 µM | HL-60 > 100 µM | RXF 393 > 100 µM | TK-10 > 100 µM | SK-OV-3 > 100 µM | SR > 100 µM | SF-295 > 100 µM | CAKI-1 > 100 µM | OVCAR-4 > 100 µM | SW-620 > 100 µM | PC-3 > 100 µM

COC(=O)C1=C(O)C(C(=O)OC)[C@]2(O)[C@H](C(=O)OC)[C@H]1C[C@@H](c1ccc(F)cc1)[C@H]2C(=O)OC (stereo partly drawn)
inactive: SNB-75 18.1 µM | HCC 2998 14.6 µM | HOP-62 22.6 µM | HOP-92 27.3 µM | NCI-H226 17.3 µM | OVCAR-3 11.1 µM | ACHN 15.5 µM | MOLT-4 15.2 µM | SF-268 23.7 µM | HL-60 2.92 µM | RXF 393 11.2 µM | TK-10 21.9 µM | SK-OV-3 22.6 µM | SR 10.9 µM | SF-295 14.2 µM | SN12C 3.63 µM | CAKI-1 19.1 µM | OVCAR-4 22.4 µM | SW-620 13.2 µM | PC-3 12.2 µM

N=c1oc2ccc(Cl)cc2cc1C(=O)Nc1ccccc1
inactive: SNB-75 23.6 µM | HCC 2998 36.3 µM | HOP-62 21.6 µM | HOP-92 10.5 µM | NCI-H226 > 100 µM | OVCAR-3 > 100 µM | ACHN 45.8 µM | MOLT-4 > 100 µM | SF-268 > 76 µM | HL-60 > 100 µM | RXF 393 26.2 µM | TK-10 > 75.2 µM | SK-OV-3 23.3 µM | SR > 100 µM | SF-295 > 100 µM | SN12C > 100 µM | CAKI-1 11.1 µM | OVCAR-4 > 100 µM | SW-620 > 100 µM | PC-3 > 100 µM

CCC(CCCN)Nc1cc(OC)cc2cccnc12 (stereo not drawn)
inactive: SNB-75 31.1 µM | HCC 2998 22.7 µM | HOP-62 > 100 µM | HOP-92 > 100 µM | NCI-H226 > 100 µM | OVCAR-3 40.4 µM | ACHN > 100 µM | MOLT-4 > 10 µM | SF-268 > 100 µM | HL-60 21.9 µM | RXF 393 41.3 µM | TK-10 > 100 µM | SK-OV-3 > 100 µM | SR 79.6 µM | SF-295 > 100 µM | SN12C > 100 µM | CAKI-1 > 100 µM | OVCAR-4 90.2 µM | SW-620 > 100 µM | PC-3 > 100 µM
